This is an account of results in patent US20140018384A1, “QUINOLINONE DERIVATIVES FOR USE IN THE TREATMENT OF AN AUTOIMMUNE DISEASE AND/OR AN INFLAMMATORY DISEASE” (PRONOXIS AB, priority 2011, published 2014).

Structures are written as SMILES. Where two headings read alike, the source gives them in different places.

The experiment relates to PLB-985 cells. Nature of the experiment: ROS production (isoluminol/HRP luminescence) in PLB-985 cells, Biological Example 1. Type of experiment: cell-based. On the procedure:
To cells (HL-60 or PLB-985) in HBSS medium was added compound (25 or 50 μM), isoluminol and Horse Radish Peroxidase, fraction II. Luminescence was measured for 10-30 minutes and the area under the […] curve was divided by that from a control experiment to give the activity expressed as fold change.
Each assay indicated below was performed at a different site, at a different time, by different personnel and/or using different cell lines, concentrations and controls. The cell line, concentration of example compound and control used in respect of each assay were as indicated below. The values obtained from these different setups (each using an otherwise identical assay) are given as Activity A, B, C, D or E in Table 5 below. The values are expressed as fold increase of NADPH activity in the presence of the relevant of compound (as indicated below) compared to the relevant control (as indicated below).
Activity A: HL-60 cells; 50 μM compound vs. blank Activity B: PLB-985 cells; 25 μM compound vs. blank Activity C, D and E: PLB-985 cells; 25 μM compound vs. DMSO

[1] abbreviates: 25 μM compound vs. DMSO, setup C, read-out: Activity C (fold increase of NADPH activity compared to control).
Where [2] appears, read: 25 μM compound vs. blank, read-out: Activity B (fold increase of NADPH activity compared to control).
Setting [3] is: 25 μM compound vs. DMSO, setup D, read-out: Activity D (fold increase of NADPH activity compared to control).

For `COc1cccc(NC(=O)Cn2cc(C(=O)c3ccccc3)c(=O)c3cc4c(cc32)OCO4)c1` [Example 68, N-(m-Anisyl)-2-(3-benzoyl-6,7-methylenedioxy-4-oxo-1-quinolinyl)acetamide], the fold induction at 25 µM was 6.7 under setting [1] and 10.1 under setting [2].

For the compound `COc1cccc(NC(=O)Cn2cc(C(=O)c3ccc(Cl)cc3)c(=O)c3cc4c(cc32)OCO4)c1` [Example 69, N-(m-Anisyl)-2-[3-(4-chlorobenzoyl)-6,7-methylenedioxy-4-oxo-1-quinolinyl]acetamide], the fold induction at 25 µM runs as follows: under setting [1], 4; under setting [2], 4.6.

Take `CCOc1ccc(NC(=O)Cn2cc(C(=O)c3ccc(C)cc3)c(=O)c3cc4c(cc32)OCO4)cc1` [Example 70, N-(4-Ethoxyphenyl)-2-(6,7-methylenedioxy-4-oxo-3-p-toluoyl-1-quinolinyl)acetamide]: the fold induction at 25 µM is 25.4 under setting [1] and 33.2 under setting [2].

`CCOc1ccc(NC(=O)Cn2cc(C(=O)c3ccc(CC)cc3)c(=O)c3cc4c(cc32)OCO4)cc1` [Example 71, N-(4-Ethoxyphenyl)-2-[3-(4-ethylbenzoyl)-6,7-methylenedioxy-4-oxo-1-quinolinyl]acetamide]: the fold induction at 25 µM runs as follows: under setting [1], 25.1; under setting [2], 43.6.

Regarding `Cc1ccc(C(=O)c2cn(CC(=O)Nc3ccc(F)cc3)c3cc4c(cc3c2=O)OCO4)cc1C` [Example 72, 2-[3-(3,4-Dimethylbenzoyl)-6,7-methylenedioxy-4-oxo-1-quinolinyl]-N-(4-fluorophenyl)acetamide], the fold induction at 25 µM runs as follows: under setting [1], 33.6; under setting [2], 62.6.

As to `COc1cc(NC(=O)Cn2cc(C(=O)c3ccc(C)c(C)c3)c(=O)c3cc4c(cc32)OCO4)cc(OC)c1` [Example 73, N-(3,5-Dimethoxyphenyl)-2-[3-(3,4-dimethylbenzoyl)-6,7-methylenedioxy-4-oxo-1-quinolinyl]acetamide], the fold induction at 25 µM under setting [1] amounted to 17.1 and the fold induction at 25 µM under setting [2] amounted to 15.2.

With `Cc1ccc(C(=O)c2cn(CC(=O)Nc3ccc4c(c3)OCCO4)c3cc4c(cc3c2=O)OCO4)cc1C` [Example 74, 2-[3-(3,4-Dimethylbenzoyl)-6,7-methylenedioxy-4-oxo-1-quinolinyl]-N-(3,4-ethylenedioxyphenyl)-acetamide], the fold induction at 25 µM stood at 20.1 under setting [1] and 38 under setting [2].

`COc1cccc(NC(=O)Cn2cc(C(=O)c3ccc(C)c(C)c3)c(=O)c3cc4c(cc32)OCO4)c1` [Example 75, N-m-Anisyl-2-[3-(3,4-dimethylbenzoyl)-6,7-methylenedioxy-4-oxo-1-quinolinyl]acetamide]: the fold induction at 25 µM reads like this: under setting [1], 5.3; under setting [2], 7.7.

For the compound `Cc1ccc(C(=O)c2cn(CC(=O)Nc3ccc4c(c3)OCO4)c3cc4c(cc3c2=O)OCO4)cc1C` [Example 76, 2-[3-(3,4-Dimethylbenzoyl)-6,7-methylenedioxy-4-oxo-1-quinolinyl]-N-(3,4-methylenedioxyphenyl)-acetamide], the fold induction at 25 µM turned out to be 23.9 under setting [1] and 43.6 under setting [2].

On to `COc1ccc(C(=O)c2cn(CC(=O)Nc3cccc(OC)c3)c3cc4c(cc3c2=O)OCO4)cc1` [Example 77], for which the fold induction at 25 µM under setting [1] came to 2.8.

In the case of `CCc1ccc(C(=O)c2cn(CC(=O)Nc3ccc4c(c3)OCO4)c3cc4c(cc3c2=O)OCO4)cc1` [Example 78, 2-[3-(4-Ethylbenzoyl)-6,7-methylenedioxy-4-oxo-1-quinolinyl]-N-(3,4-methylenedioxyphenyl)acetamide], the fold induction at 25 µM under setting [1] was 11.6.

For the compound `O=C(Cn1cc(S(=O)(=O)c2ccccc2)c(=O)c2cc3c(cc21)OCO3)Nc1ccccc1` [Example 79, 2-(3-Benzenesulfonyl-6,7-methylenedioxy-4-oxo-1-quinolinyl)-N-phenylacetamide], under setting [1], the fold induction at 25 µM is 3.2.

Consider `O=C(Cn1cc(S(=O)(=O)c2ccccc2)c(=O)c2cc3c(cc21)OCO3)Nc1ccc(F)cc1` [Example 80, 2-(3-Benzenesulfonyl-6,7-methylenedioxy-4-oxo-1-quinolinyl)-N-(4-fluorophenyl)acetamide], for which the fold induction at 25 µM under setting [1] came out at 3.2.

As for `O=C(Cn1cc(C(=O)c2ccc(F)cc2)c(=O)c2cc3c(cc21)OCO3)Nc1ccc2c(c1)OCCO2` [Example 81, N-(3,4-Ethylenedioxyphenyl)-2-[3-(4-fluorobenzoyl)-6,7-methylenedioxy-4-oxo-1-quinolinyl]acetamide], the fold induction at 25 µM under setting [1] turned out to be 22.6.

Regarding `CCc1ccc(NC(=O)Cn2cc(S(=O)(=O)c3ccccc3)c(=O)c3cc4c(cc32)OCO4)cc1` [Example 82, 2-(3-Benzenesulfonyl-6,7-methylenedioxy-4-oxo-1-quinolinyl)-N-(4-ethylphenyl)acetamide], the fold induction at 25 µM under setting [1] was 5.9.

`O=C(Cn1cc(S(=O)(=O)c2ccc(F)cc2)c(=O)c2cc3c(cc21)OCO3)Nc1ccc(F)cc1` [Example 83, 2-[3-(4-Fluorobenzenesulfonyl)-6,7-methylenedioxy-4-oxo-1-quinolinyl]-N-(4-fluorophenyl)acetamide]: the fold induction at 25 µM under setting [1] was 2.

`COc1ccc(NC(=O)Cn2cc(S(=O)(=O)c3ccccc3)c(=O)c3cc4c(cc32)OCO4)cc1` [Example 85, N-p-Anisyl-2-(3-benzenesulfonyl-6,7-methylenedioxy-4-oxo-1-quinolinyl)acetamide]: the fold induction at 25 µM under setting [1] turned out to be 12.2.

With `O=C(Cn1cc(C(=O)c2ccc(F)cc2)c(=O)c2cc3c(cc21)OCO3)Nc1ccc2c(c1)OCO2` [Example 86, 2-[3-(4-Fluorobenzoyl)-6,7-methylenedioxy-4-oxo-1-quinolinyl]-N-(3,4-methylenedioxyphenyl)acetamide], the fold induction at 25 µM amounted to 28.3 under setting [1] and 22.7 under setting [2].

With `COc1ccc(NC(=O)Cn2cc(C(=O)c3ccccc3)c(=O)c3cc4c(cc32)OCO4)cc1` [Example 87, N-p-Anisyl-2-(3-benzoyl-6,7-methylenedioxy-4-oxo-1-quinolinyl)acetamide], the fold induction at 25 µM under setting [1] was 27.2.

With `O=C(Cn1cc(C(=O)c2ccc(Cl)cc2)c(=O)c2cc3c(cc21)OCO3)Nc1ccc2c(c1)OCO2` [Example 88, 2-[3-(4-Chlorobenzoyl)-6,7-methylenedioxy-4-oxo-1-quinolinyl]-N-(3,4-methylenedioxyphenyl)acetamide], the fold induction at 25 µM under setting [1] is 31.4.

On to `O=C(Cn1cc(C(=O)c2ccc(F)cc2)c(=O)c2cc3c(cc21)OCO3)Nc1ccc(Cl)cc1` [Example 89, N-(4-Chlorophenyl)-2-[3-(4-fluorobenzoyl)-6,7-methylenedioxy-4-oxo-1-quinolinyl]acetamide], for which the fold induction at 25 µM by setting is: under setting [1], 34.4; under setting [3], 17.1; under setting [2], 33.

Consider `COc1ccc(NC(=O)Cn2cc(C(=O)c3ccc(Cl)cc3)c(=O)c3cc4c(cc32)OCO4)cc1` [Example 90, N-p-Anisyl-2-[3-(4-chlorobenzoyl)-6,7-methylenedioxy-4-oxo-1-quinolinyl]acetamide], for which the fold induction at 25 µM amounted to 37.6 under setting [1] and 40.9 under setting [2].

With `CCOc1ccc2c(c1)c(=O)c(C(=O)c1ccc(F)cc1)cn2CC(=O)Nc1ccc(OC)cc1` [Example 102, N-p-Anisyl-2-[6-ethoxy-3-(4-fluorobenzoyl)-4-oxo-1-quinolinyl]acetamide], the fold induction at 25 µM under setting [3] was determined as 2.1.

Turning to `COc1ccc(NC(=O)Cn2cc(C(=O)c3ccccc3)c(=O)c3cc(OC)c(OC)cc32)cc1` [Example 103, N-p-Anisyl-2-(3-benzoyl-6,7-dimethoxy-4-oxo-1-quinolinyl)acetamide], the fold induction at 25 µM under setting [3] was 3.7.

Consider `COc1ccc(NC(=O)Cn2cc(C(=O)c3ccc(Cl)cc3)c(=O)c3cc(OC)c(OC)cc32)cc1` [Example 104, N-p-Anisyl-2-[3-(4-chlorobenzoyl)-6,7-dimethoxy-4-oxo-1-quinolinyl]acetamide], for which the fold induction at 25 µM under setting [3] amounted to 1.4.

For the compound `COc1ccc(NC(=O)Cn2cc(C(=O)c3ccc(F)cc3)c(=O)c3cc(OC)c(OC)cc32)cc1` [Example 105, N-p-Anisyl-2-[6,7-dimethoxy-3-(4-fluorobenzoyl)-4-oxo-1-quinolinyl]acetamide], the fold induction at 25 µM under setting [3] was 2.

For the compound `COc1ccc(NC(=O)Cn2cc(C(=O)c3ccc(F)cc3)c(=O)c3cc(F)ccc32)cc1` [Example 106, N-p-Anisyl-2-[6-fluoro-3-(4-fluorobenzoyl)-4-oxo-1-quinolinyl]acetamide], the fold induction at 25 µM under setting [3] was determined as 5.6.

Consider `COc1ccc(NC(=O)Cn2cc(C(=O)c3ccc(F)cc3)c(=O)c3cc(OC)ccc32)cc1` [Example 107, N-p-Anisyl-2-[3-(4-fluorobenzoyl)-6-methoxy-4-oxo-1-quinolinyl]acetamide], for which the fold induction at 25 µM under setting [3] was determined as 6.6.

`COc1ccc(NC(=O)Cn2cc(C(=O)c3ccc(F)cc3)c(=O)c3cc4c(cc32)OCCO4)cc1` [Example 108, N-p-Anisyl-2-[6,7-ethylenedioxy-3-(4-fluorobenzoyl)-4-oxo-1-quinolinyl]acetamide]: under setting [3], the fold induction at 25 µM came out at 1.3.

Turning to `COc1ccc(NC(=O)Cn2cc(C(=O)c3ccc(F)cc3)c(=O)c3cc(Cl)ccc32)cc1` [Example 109, N-p-Anisyl-2-[6-chloro-3-(4-fluorobenzoyl)-4-oxo-1-quinolinyl]acetamide], the fold induction at 25 µM under setting [3] was determined as 2.5.
